Each block holds one molecule with its values, some of them ahead of it.
Experiments:
[1] = In vitro stability in fetal bovine serum; assay type: in vitro ADME; settings: 37°C, 0 h
[2] = tested on: INS-1 insulinoma xenograft; test: In vivo distribution of radioactivity across organs in nude mouse insulinoma model; design: species or system BALB/c nude mice; settings: 90 min after injection of approx. 100 µCi, from %ID/g, mean ± SD, N = 3
Method: (§1) A total of 24 nude mice were each subcutaneously injected in the armpit of the right upper limb with 100 µl of a suspension of INS-1 cells (containing approximately 10^7 cells per 100 µl). The nude mice were reared under conventional sterile conditions and given 5% dextrose injections as drinking water (Shanghai Changzheng Fumin Jinshan Pharmaceutical, Shanghai, China). Their blood glucose levels were monitored every 2–3 days with a glucometer (Accu-Chek Integra integrated blood glucose meter, Roche, Berlin, Germany), and all measured blood glucose levels were at least 3 mmol/L.
Six nude mice each received a 100 µl injection containing approximately 100 µCi of ^125I-liraglutide. At 90 min and 360 min after this injection, 3 mice were sacrificed by cervical dislocation. First, blood was collected from the heart; next, isolated various organs and tissues, including the heart, lungs, liver, stomach, kidneys, spleen, small intestine, and pancreas, as well as muscle tissue and the tumour; the isolated samples were then placed into tubes that were impervious to γ radiation and weighed. For each tube, the radioactivity in counts per minute was then measured by a γ counter. The results were presented in terms of %ID/g (the percentage of the total injected dose of radioactivity per gram of tissue). Histograms of %ID/g for various organs at the 90 min and 360 min time points were plotted.

[3] = tested on: INS-1 insulinoma xenograft; test: In vivo blocking experiment with unlabelled liraglutide (biodistribution); design: species or system BALB/c nude mice; settings: 100 µg unlabelled liraglutide i.v. 30 min before approx. 100 µCi tracer, 90 min, p<0.05, N = 3
Method: as §1
In this experiment, 100 µl of liraglutide solution containing 100 µg of unlabelled liraglutide, was injected into the tail veins of each of 3 nude mice with insulinoma. Half an hour later, 100 µl of ^125I-liraglutide solution containing approximately 100 µCi of ^125I-liraglutide was injected into the tail vein of each mouse. To create an unblocked experimental group that corresponded with this blocked group, 100 µl of ^125I-liraglutide solution containing approximately 100 µCi of ^125I-liraglutide was injected into the tail veins of each of 3 more nude mice with insulinoma. These six nude mice with insulinoma were sacrificed by cervical dislocation at 90 min after the ^125I-liraglutide injection. First, blood was collected from the heart and various organs and tissues were isolated; the isolated samples were then placed into tubes that were impervious to γ radiation and weighed. For each tube, the radioactivity in counts per minute was then measured by a γ counter. The results were presented in terms of %ID/g. A histogram of %ID/g for various organs at the 90 min time point in the blocked and unblocked groups was plotted.

[4] = cited from earlier work
GLP-1 receptors = target: GLP-1 receptors; design: method as in PMID 23652208; settings: Rin-m5f insulinoma cells, earlier exendin-4 imaging study of the authors; cited from earlier work
[5] = in vivo; cited from earlier work
From the text: This approach can be utilised for qualitative diagnoses, accurate staging, and evaluation of treatment efficacy. However, the detection rate of SSTR imaging for insulinoma is not high. […] This limited utility is because in tumours, among the five subtypes of SSTRs (SSTR1-SSTR5), radionucli ...

intact peptide in fetal bovine serum [1]: 92.9%
Molecule: CCCCCCCCCCCCCCCC(=O)N[C@@H](CCC(=O)NCCCC[C@H](NC(=O)[C@H](C)NC(=O)[C@H](C)NC(=O)[C@H](CCC(N)=O)NC(=O)CNC(=O)[C@H](CCC(=O)O)NC(=O)[C@H](CC(C)C)NC(=O)[C@H](Cc1ccc(O)c(I)c1)NC(=O)[C@H](CO)NC(=O)[C@H](CO)NC(=O)[C@@H](NC(=O)[C@H](CC(=O)O)NC(=O)[C@H](CO)NC(=O)[C@@H](NC(=O)[C@H](Cc1ccccc1)NC(=O)[C@@H](NC(=O)CNC(=O)[C@H](CCC(=O)O)NC(=O)[C@H](C)NC(=O)[C@@H](N)Cc1c[nH]cn1)[C@@H](C)O)[C@@H](C)O)C(C)C)C(=O)N[C@@H](CCC(=O)O)C(=O)N[C@@H](Cc1ccccc1)C(=O)N[C@H](C(=O)N[C@@H](C)C(=O)N[C@@H](Cc1c[nH]c2ccccc12)C(=O)N[C@@H](CC(C)C)C(=O)N[C@H](C(=O)N[C@@H](CCCNC(=N)N)C(=O)NCC(=O)N[C@@H](CCCNC(=N)N)C(=O)NCC(=O)O)C(C)C)[C@@H](C)CC)C(=O)O [125I-liraglutide]
T/NT ratio, tumour to muscle tissue [2]: 4.83±1.30 | T/NT ratio, tumour to pancreatic tissue [2]: 2.73±0.80 | radioactivity (%ID/g) of the lungs after blocking [3]: significantly decreased | radioactivity (%ID/g) of the pancreas after blocking [3]: significantly decreased | radioactivity (%ID/g) of the tumour after blocking [3]: significantly reduced

Molecule: CCCCCCCCCCCCCCCC(=O)N[C@@H](CCC(=O)NCCCC[C@H](NC(=O)[C@H](C)NC(=O)[C@H](C)NC(=O)[C@H](CCC(N)=O)NC(=O)CNC(=O)[C@H](CCC(=O)O)NC(=O)[C@H](CC(C)C)NC(=O)[C@H](Cc1ccc(O)cc1)NC(=O)[C@H](CO)NC(=O)[C@H](CO)NC(=O)[C@@H](NC(=O)[C@H](CC(=O)O)NC(=O)[C@H](CO)NC(=O)[C@@H](NC(=O)[C@H](Cc1ccccc1)NC(=O)[C@@H](NC(=O)CNC(=O)[C@H](CCC(=O)O)NC(=O)[C@H](C)NC(=O)[C@@H](N)Cc1cnc[nH]1)[C@@H](C)O)[C@@H](C)O)C(C)C)C(=O)N[C@@H](CCC(=O)O)C(=O)N[C@@H](Cc1ccccc1)C(=O)N[C@H](C(=O)N[C@@H](C)C(=O)N[C@@H](Cc1c[nH]c2ccccc12)C(=O)N[C@@H](CC(C)C)C(=O)N[C@H](C(=O)N[C@@H](CCCNC(=N)N)C(=O)NCC(=O)N[C@@H](CCCNC(=N)N)C(=O)NCC(=O)O)C(C)C)[C@@H](C)CC)C(=O)O [liraglutide]
in vivo half-life [4]: up to 13 h

Molecule: Exendin-4
IC50 (GLP-1 receptors): 0.35 to 2.81 nM | Kd (GLP-1 receptors): 56.6 nM

Molecule: Glucagon-like peptide-1 [GLP-1]
serum half-life [5]: less than 2 min

Reference: publication PMC4013070, “The Imaging of Insulinomas Using a Radionuclide-Labelled Molecule of the GLP-1 Analogue Liraglutide: A New Application of Liraglutide” (PLoS ONE, 2014)
